Assay results: patent US4028399A, “Carbamate” (priority 1969, dated 1977)

test system: houseflies; assay type: in vivo, common houseflies; details: 1 mm^3 acetonic solution to ventral abdomen under CO2 narcosis; kill rate after 4 hours
Experimental: ADMINISTRATION TEST WITH COMMON HOUSEFLIES
1 mm^3 of the acetonic solution of the active ingredients is administered to the ventral abdomen of houseflies under CO2 narcosis. The kill rate on the insects thus treated is determined after 4 hours, from which the mortality curve is calculated.

Structure (SMILES) | LD50
CNC(=O)Oc1cc(C)cc(C(C)C)c1 [Comparative substance II, 3-isopropyl-5-methyl-N-methylcarbamate] | 0.26 /fly
CCc1cc(CC)cc(OC(=O)NC)c1 [3,5-diethyl-phenyl-N-methylcarbamate] | 0.12 /fly
CNC(=O)Oc1cc(C)c(C)cc1Cl [Comparative substance III, 3,4-dimethyl-6-chloro-N-methylcarbamate] | 10.0 /fly
